Test results as given in the supplement of paper PMC10307832.

Assays:
BAY61-3606 + Luminespib = compound: COC1=C(C=C(C=C1)C2=CC3=NC=CN3C(=N2)NC4=C(C=CC=N4)C(=O)N)OC [BAY61-3606] + CCNC(=O)c1noc(-c2cc(C(C)C)c(O)cc2O)c1-c1ccc(CN2CCOCC2)cc1 [Luminespib] (partner 0.01 µM); assay: relative viability (nuclei count vs DMSO), 5 days (fraction); higher = more cells survive
Summary of the method: (§1)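 Medians of duplicate plates are given as relative viability. That measure is the nuclei count in treated wells divided by the count in vehicle wells. Counts were taken on 4× images of lung cancer cell lines in 1536-well plates, 5 days after pin-tool dosing the day after seeding with one drug alone or a fixed anchor-drug dose plus five library-drug doses (not always all listed) in √10 steps.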

BAY61-3606 + Dasatinib = compound: COC1=C(C=C(C=C1)C2=CC3=NC=CN3C(=N2)NC4=C(C=CC=N4)C(=O)N)OC [BAY61-3606] + Cc1nc(Nc2ncc(C(=O)Nc3c(C)cccc3Cl)s2)cc(N2CCN(CCO)CC2)n1 [Dasatinib] (partner 0.075 µM); assay: as above
Summary of the method: as §1

Row | Cell Line | relative viability (BAY61-3606 + Luminespib; first compound 0.02 µM) | relative viability (BAY61-3606 + Luminespib; first compound 0.06325 µM) | relative viability (BAY61-3606 + Luminespib; first compound 0.2 µM) | relative viability (BAY61-3606 + Luminespib; first compound 0.6325 µM) | relative viability (BAY61-3606 + Luminespib; first compound 2 µM) | relative viability (BAY61-3606 + Dasatinib; first compound 0.02 µM) | relative viability (BAY61-3606 + Dasatinib; first compound 0.06325 µM) | relative viability (BAY61-3606 + Dasatinib; first compound 0.2 µM) | relative viability (BAY61-3606 + Dasatinib; first compound 0.6325 µM) | relative viability (BAY61-3606 + Dasatinib; first compound 2 µM)
1 | COR-L 105 | 0.827 | 0.689 | 0.75 | 0.76 | 0.503 | 0.325 | 0.332 | 0.339 | 0.333 | 0.203
2 | LK-2 | 0.168 | 0.163 | 0.185 | 0.185 | 0.208 | 0.334 | 0.217 | 0.347 | 0.368 | 0.379
3 | 201T | 1.11 | 1.03 | 1.04 | 1.16 | 1.05 | 0.545 | 0.509 | 0.546 | 0.548 | 0.571
4 | HCC-78 |  |  |  |  |  | 0.363 | 0.362 | 0.379 | 0.48 | 0.694
5 | NCI-H727 | 0.334 | 0.364 | 0.266 | 0.328 | 0.331 | 0.364 | 0.438 | 0.339 | 0.333 | 0.386
6 | H3255 | 0.966 | 0.896 | 0.951 | 1.06 | 0.961 | 0.411 | 0.304 | 0.352 | 0.335 | 0.462
7 | NCI-H838 | 0.368 | 0.24 | 0.347 | 0.259 | 0.28 | 0.284 | 0.299 | 0.291 | 0.251 | 0.237
8 | NCI-H2085 | 0.416 | 0.469 | 0.486 | 0.443 | 0.412 | 0.281 | 0.226 | 0.285 | 0.248 | 0.25
9 | NCI-H2405 | 0.736 | 0.569 | 0.716 | 0.739 | 0.485 | 0.203 | 0.205 | 0.201 | 0.181 | 0.185
10 | NCI-H2170 | 0.796 | 0.717 | 0.761 | 0.852 | 0.506 | 0.64 | 0.508 | 0.539 | 0.465 | 0.352
11 | NCI-H1944 | 0.802 | 0.674 | 0.734 | 0.688 | 0.282 | 0.216 | 0.205 | 0.232 | 0.21 | 0.193
12 | NCI-H661 | 0.902 | 0.917 | 0.867 | 0.879 | 0.823 | 0.985 | 0.835 | 0.861 | 0.886 | 0.702
13 | NCI-H650 | 0.925 | 0.751 | 0.766 | 0.927 | 0.652 | 0.52 | 0.378 | 0.363 | 0.428 | 0.361
14 | EKVX | 0.999 | 0.927 | 0.844 | 0.897 | 0.843 | 0.602 | 0.455 | 0.436 | 0.58 | 0.297
15 | SK-MES-1 | 0.862 | 0.759 | 0.791 | 0.805 | 0.304 | 0.379 | 0.302 | 0.357 | 0.339 | 0.23
16 | EPLC-272H | 0.33 | 0.424 | 0.801 | 0.131 | 0.138 | 0.386 | 0.385 | 0.315 | 0.41 | 0.275
17 | NCI-H1650 | 0.182 | 0.184 | 0.191 | 0.203 | 0.208 | 0.304 | 0.261 | 0.3 | 0.296 | 0.245

Row | Cell Line | relative viability (BAY61-3606 + Luminespib; first compound 0.02 µM) | relative viability (BAY61-3606 + Luminespib; first compound 0.06325 µM) | relative viability (BAY61-3606 + Luminespib; first compound 0.2 µM) | relative viability (BAY61-3606 + Luminespib; first compound 0.6325 µM) | relative viability (BAY61-3606 + Luminespib; first compound 2 µM) | relative viability (BAY61-3606 + Dasatinib; first compound 0.02 µM) | relative viability (BAY61-3606 + Dasatinib; first compound 0.06325 µM) | relative viability (BAY61-3606 + Dasatinib; first compound 0.2 µM) | relative viability (BAY61-3606 + Dasatinib; first compound 0.6325 µM) | relative viability (BAY61-3606 + Dasatinib; first compound 2 µM)
18 | NCI-H1395 | 0.849 | 0.595 | 0.733 | 0.568 | 0.546 | 0.385 | 0.404 | 0.387 | 0.383 | 0.399
19 | NCI-H2228 | 0.13 | 0.175 | 0.125 | 0.199 | 0.177 | 0.572 | 0.498 | 0.571 | 0.46 | 0.278
20 | NCI-H2023 | 0.885 | 0.614 | 0.669 | 0.778 | 0.535 | 0.639 | 0.601 | 0.554 | 0.525 | 0.334
21 | NCI-H522 | 1.05 | 1.13 | 1.16 | 1.12 | 0.89 | 0.838 | 0.792 | 0.975 | 0.832 | 0.747
22 | NCI-H322M | 0.879 | 0.806 | 0.818 | 0.819 | 0.742 | 0.247 | 0.232 | 0.256 | 0.233 | 0.224
23 | NCI-H1792 | 0.462 | 0.404 | 0.439 | 0.581 | 0.274 | 0.858 | 0.76 | 0.809 | 0.83 | 0.535
24 | HCC-827 | 0.492 | 0.587 | 0.572 | 0.743 | 0.31 | 0.332 | 0.328 | 0.363 | 0.315 | 0.24
25 | LU99A | 0.347 | 0.256 | 0.407 | 0.248 | 0.209 | 0.561 | 0.509 | 0.505 | 0.51 | 0.303
26 | LC-2-ad | 1.2 | 0.98 | 1.1 | 0.963 | 0.646 | 0.569 | 0.496 | 0.753 | 0.622 | 0.27
27 | NCI-H460 | 0.0381 | 0.0387 | 0.0289 | 0.0296 | 0.0322 | 0.574 | 0.493 | 0.533 | 0.421 | 0.284
28 | HOP-62 | 0.919 | 1.07 | 0.83 | 0.933 | 0.651 | 0.744 | 0.729 | 0.691 | 0.844 | 0.634
29 | NCI-H441 | 0.258 | 0.31 | 0.369 | 0.335 | 0.302 | 0.614 | 0.655 | 0.54 | 0.521 | 0.438
30 | NCI-H1993 | 0.947 | 0.736 | 0.873 | 0.901 | 0.527 | 0.581 | 0.56 | 0.566 | 0.521 | 0.491
31 | NCI-H1734 | 0.26 | 0.179 | 0.188 | 0.278 | 0.167 | 0.582 | 0.386 | 0.409 | 0.331 | 0.272
32 | NCI-H1666 | 1.12 | 0.998 | 1.13 | 1.08 | 1.05 | 0.841 | 0.804 | 0.813 | 0.742 | 0.652
33 | NCI-H647 | 0.205 | 0.16 | 0.21 | 0.221 | 0.0962 | 0.193 | 0.158 | 0.189 | 0.164 | 0.0812
